Target: T1, human PTHR1 receptor (Homo sapiens, UniProt Q03431)
T1 construct: purchased Eurofins HTS030M
T1 sequence (Q03431 27-593): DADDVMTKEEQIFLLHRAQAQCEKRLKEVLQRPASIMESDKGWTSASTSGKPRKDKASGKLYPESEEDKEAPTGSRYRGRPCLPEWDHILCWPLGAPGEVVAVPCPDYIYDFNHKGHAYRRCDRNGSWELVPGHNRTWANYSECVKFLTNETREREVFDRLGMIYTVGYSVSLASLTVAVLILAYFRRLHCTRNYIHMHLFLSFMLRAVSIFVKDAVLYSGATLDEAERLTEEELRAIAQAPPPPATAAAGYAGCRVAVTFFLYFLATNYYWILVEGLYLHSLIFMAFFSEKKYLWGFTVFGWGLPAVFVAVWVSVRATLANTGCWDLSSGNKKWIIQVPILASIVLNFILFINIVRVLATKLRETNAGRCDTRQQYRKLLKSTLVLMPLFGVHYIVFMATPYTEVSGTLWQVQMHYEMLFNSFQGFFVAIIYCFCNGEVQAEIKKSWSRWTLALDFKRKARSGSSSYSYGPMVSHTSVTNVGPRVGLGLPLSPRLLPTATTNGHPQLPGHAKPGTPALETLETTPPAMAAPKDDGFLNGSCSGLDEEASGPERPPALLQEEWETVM
Assay: Competitive antagonist binding assay for hPTH-R1 (radioactive competition binding, SPA beads)
Details: human PTHR1 membranes, [125I]-[Nle8,18,Tyr34]-PTH(1-34) 0.2 nM, 90 minutes at room temperature; read-out: hPTHR1 Ki
Method: Competitive Antagonist Binding Assay Protocol for hPTH-R1 Antagonists:
The inhibition of binding to the human PTHR1 receptor was measured in a radioactive competition binding assay using the radiolabeled [^125I]-[NLE^8,18, TYR^34]-parathyroid hormone (1-34) ligand (PerkinElmer Cat# NEX244, custom synthesis) as the probe ligand for the receptor. Briefly, membranes from cells expressing the human PTHR1 (Eurofins Cat# HTS030M) were incubated with SPA beads (PerkinElmer Cat# RPNQ0001) in binding assay buffer [50 mM HEPES (Biopioneer Cat# C0113), 5 mM MgCl2 (Sigma Cat# M8266), 10 mM CaCl2 (Fisher Scientific Cat# BP510), 0.1% BSA (Fisher Scientific Cat# BP1600), 0.01% TritonX-100 (Bio-Rad Cat#161-0407), and protease inhibitors (Pierce Cat# A32963); pH 7.4]. Membranes bound to SPA bead were treated with various dilutions of compounds (final concentrations typically 0-10,000 nM), and 0.2 nM radiolabeled ligand in 96-well isoplates (PerkinElmer Cat#6005040) for 90 minutes at room temperature. The radioactive signal was detected using a MicroBetaTriLux 1450 LSC (PerkinElmer). All data manipulations to determine the Ki values were performed using GraphPad v8 (GraphPad, San Diego Calif.).

| Compound | Ki |
| --- | --- |
| CCN1C(=O)N(c2c(F)cc(NCCNC)cc2F)c2cc(C#N)ccc2-c2cc(C(F)(F)F)cnc21 [1-97, 10-(2,6-difluoro-4-{[2-(methylamino)ethyl]amino}phenyl)-8-ethyl-9-oxo-4-(trifluoromethyl)-6,8,10-triazatricyclo[9.4.0.0^2,7]pentadeca-1(11),2(7),3,5,12,14-hexaene-13-carbonitrile] | < 100 nM |
| CCN1C(=O)N(c2c(F)cc(NCCNCCO)cc2F)c2cc(Cl)c(C)cc2-c2cccnc21 [3-2, 13-chloro-10-[2,6-difluoro-4-({2-[(2-hydroxyethyl)amino]ethyl}amino)phenyl]-8-ethyl-14-methyl-6,8,10-triazatricyclo[9.4.0.0^2,7]pentadeca-1(11),2(7),3,5,12,14-hexaen-9-one] | < 100 nM |
| CNCCNc1cc(F)c(N2C(=O)N(C)c3ncc(Cl)cc3-c3ccc(Cl)cc32)c(F)c1 [1-30, 4,13-dichloro-10-(2,6-difluoro-4-{[2-(methylamino)ethyl]amino}phenyl)-8-methyl-6,8,10-triazatricyclo[9.4.0.0^2,7]pentadeca-1(11),2(7),3,5,12,14-hexaen-9-one] | < 100 nM |
| CCN1C(=O)N(c2c(F)cc(NCCNCCO)cc2F)c2cc(Cl)ccc2-c2c1ncc(F)c2C [3-6, 13-chloro-10-[2,6-difluoro-4-({2-[(2-hydroxyethyl)amino]ethyl}amino)phenyl]-8-ethyl-4-fluoro-3-methyl-6,8,10-triazatricyclo[9.4.0.0^2,7]pentadeca-1(11),2(7),3,5,12,14-hexaen-9-one] | < 100 nM |
| CCC(CO)NCCNc1cc(F)c(N2C(=O)N(CC)c3ncc(Cl)cc3-c3ccc(C#N)cc32)c(F)c1 (stereo not shown) [1-139, 4-chloro-10-[2,6-difluoro-4-({2-[(1-hydroxybutan-2-yl)amino]ethyl}amino)phenyl]-8-ethyl-9-oxo-6,8,10-triazatricyclo[9.4.0.0^2,7]pentadeca-1(11),2(7),3,5,12,14-hexaene-13-carbonitrile] | < 100 nM |
| CCN1C(=O)N(c2c(F)cc(NCCNC)cc2F)c2ccccc2-c2cc(Cl)cnc21 [1-135, 4-chloro-10-(2,6-difluoro-4-{[2-(methylamino)ethyl]amino}phenyl)-8-ethyl-6,8,10-triazatricyclo[9.4.0.0^2,7]pentadeca-1(11),2(7),3,5,12,14-hexaen-9-one] | < 100 nM |
| CCN1C(=O)N(c2c(F)cc(NCCNCC(N)=O)cc2F)c2cc(C#N)ccc2-c2cc(Cl)cnc21 [1-162, 2-({2-[(4-{4-chloro-13-cyano-8-ethyl-9-oxo-6,8,10-triazatricyclo[9.4.0.0^2,7]pentadeca-1(11),2(7),3,5,12,14-hexaen-10-yl}-3,5-difluorophenyl)amino]ethyl}amino)acetamide] | < 100 nM |
| CCN1C(=O)N(c2c(F)cc(NCCN)cc2F)c2cc(Cl)ccc2-c2cc(C)cnc21 [1-22, 10-{4-[(2-aminoethyl)amino]-2,6-difluorophenyl}-13-chloro-8-ethyl-4-methyl-6,8,10-triazatricyclo[9.4.0.0^2,7]pentadeca-1(11),2(7),3,5,12,14-hexaen-9-one] | < 100 nM |
| CCN1C(=O)N(c2c(F)cc(NCCNCCO)cc2F)c2nc(C#N)ccc2-c2cc(F)cnc21 [3-14, 8-[2,6-difluoro-4-({2-[(2-hydroxyethyl)amino]ethyl}amino)phenyl]-10-ethyl-14-fluoro-9-oxo-6,8,10,12-tetraazatricyclo[9.4.0.0^2,7]pentadeca-1(11),2(7),3,5,12,14-hexaene-5-carbonitrile] | < 100 nM |
| CCN1C(=O)N(c2c(F)cc(NCCNC3CCOCC3)cc2F)c2cc(Cl)ccc2-c2cc(F)cnc21 [1-19, 13-chloro-10-[2,6-difluoro-4-({2-[(oxan-4-yl)amino]ethyl}amino)phenyl]-8-ethyl-4-fluoro-6,8,10-triazatricyclo[9.4.0.0^2,7]pentadeca-1(11),2(7),3,5,12,14-hexaen-9-one] | < 100 nM |
| 10-[4-({2-[(3-amino-2-hydroxypropyl)amino]ethyl}amino)-2,6-difluorophenyl]-4-chloro-8-ethyl-9-oxo-6,8,10-triazatricyclo[9.4.0.0^2,7]pentadeca-1(11),2(7),3,5,12,14-hexaene-13-carbonitrile [1-188] | < 100 nM |
| CCCN1C(=O)N(c2c(F)cc(NCCNC)cc2F)c2cc(C#N)ccc2-c2cc(Cl)cnc21 [1-119, 4-chloro-10-(2,6-difluoro-4-{[2-(methylamino)ethyl]amino}phenyl)-9-oxo-8-propyl-6,8,10-triazatricyclo[9.4.0.0^2,7]pentadeca-1(11),2(7),3,5,12,14-hexaene-13-carbonitrile] | < 100 nM |
| CCN1C(=O)N(c2c(F)cc(NCCN[C@@H](C)CO)cc2F)c2cc(C#N)ccc2-c2cc(Cl)cnc21 [1-185, 4-chloro-10-{2,6-difluoro-4-[(2-{[(2S)-1-hydroxypropan-2-yl]amino}ethyl)amino]phenyl}-8-ethyl-9-oxo-6,8,10-triazatricyclo[9.4.0.0^2,7]pentadeca-1(11),2(7),3,5,12,14-hexaene-13-carbonitrile] | < 100 nM |
| O=C1N(CC2CC2)c2ncc(Cl)cc2-c2ccc(Cl)cc2N1c1c(F)cc(NCCNCCO)cc1F [1-52, 4,13-dichloro-8-(cyclopropylmethyl)-10-[2,6-difluoro-4-({2-[(2-hydroxyethyl)amino]ethyl}amino)phenyl]-6,8,10-triazatricyclo[9.4.0.0^2,7]pentadeca-1(11),2(7),3,5,12,14-hexaen-9-one] | < 100 nM |
| CCN1C(=O)N(c2c(F)cc(NCCNC(C)CO)cc2F)c2cc(C#N)ccc2-c2cc(Cl)cnc21 (stereo not shown) [1-149, 4-chloro-10-[2,6-difluoro-4-({2-[(1-hydroxypropan-2-yl)amino]ethyl}amino)phenyl]-8-ethyl-9-oxo-6,8,10-triazatricyclo[9.4.0.0^2,7]pentadeca-1(11),2(7),3,5,12,14-hexaene-13-carbonitrile] | < 100 nM |
| CCN1C(=O)N(c2c(F)cc(N3CCN[C@@H](CO)C3)cc2F)c2cc(C#N)ccc2-c2cc(Cl)cnc21 [1-153, 4-chloro-10-{2,6-difluoro-4-[(3R)-3-(hydroxymethyl)piperazin-1-yl]phenyl}-8-ethyl-9-oxo-6,8,10-triazatricyclo[9.4.0.0^2,7]pentadeca-1(11),2(7),3,5,12,14-hexaene-13-carbonitrile] | < 100 nM |
| CCN1C(=O)N(c2c(F)cc(NCCNC)cc2F)c2cc(C#N)cc(C)c2-c2cc(F)cnc21 [1-62, 10-(2,6-difluoro-4-{[2-(methylamino)ethyl]amino}phenyl)-8-ethyl-4-fluoro-15-methyl-9-oxo-6,8,10-triazatricyclo[9.4.0.0^2,7]pentadeca-1(11),2(7),3,5,12,14-hexaene-13-carbonitrile] | < 100 nM |
| CCN1C(=O)N(c2c(F)cc(NCCNCCO)cc2F)c2cc(Cl)ccc2-c2cc(C(F)(F)F)cnc21 [1-56, 13-chloro-10-[2,6-difluoro-4-({2-[(2-hydroxyethyl)amino]ethyl}amino)phenyl]-8-ethyl-4-(trifluoromethyl)-6,8,10-triazatricyclo[9.4.0.0^2,7]pentadeca-1(11),2(7),3,5,12,14-hexaen-9-one] | < 100 nM |
| CCN1C(=O)N(c2ccc(NCCNC)cc2)c2cc(Cl)ccc2-c2cc(F)cnc21 [2-4, 13-chloro-8-ethyl-4-fluoro-10-(4-{[2-(methylamino)ethyl]amino}phenyl)-6,8,10-triazatricyclo[9.4.0.0^2,7]pentadeca-1(11),2(7),3,5,12,14-hexaen-9-one] | < 100 nM |

From patent US20230159532A1, “PARATHYROID HORMONE (PTH) RECEPTOR ANTAGONISTS AND USES THEREOF” (Crinetics Pharmaceuticals, Inc., priority 2021, published 2023)
